# Source: ChEMBL document CHEMBL1147662, “Biarylaniline phenethanolamines as potent and selective beta3 adrenergic receptor agonists” (J Med Chem, 2006)
# How the values were obtained:
# [1] = Volume of distribution in Beagle dog; type: ADME, organism-based, Canis lupus familiaris; settings: in vivo, read-out: Vss
# [2] = Clearance in Beagle dog; type: ADME, organism-based, Canis lupus familiaris; settings: in vivo
# [3] = biological target: Beta-3 adrenergic receptor (Homo sapiens, UniProt P13945)
# Sequence of Beta-3 adrenergic receptor (P13945 whole entry): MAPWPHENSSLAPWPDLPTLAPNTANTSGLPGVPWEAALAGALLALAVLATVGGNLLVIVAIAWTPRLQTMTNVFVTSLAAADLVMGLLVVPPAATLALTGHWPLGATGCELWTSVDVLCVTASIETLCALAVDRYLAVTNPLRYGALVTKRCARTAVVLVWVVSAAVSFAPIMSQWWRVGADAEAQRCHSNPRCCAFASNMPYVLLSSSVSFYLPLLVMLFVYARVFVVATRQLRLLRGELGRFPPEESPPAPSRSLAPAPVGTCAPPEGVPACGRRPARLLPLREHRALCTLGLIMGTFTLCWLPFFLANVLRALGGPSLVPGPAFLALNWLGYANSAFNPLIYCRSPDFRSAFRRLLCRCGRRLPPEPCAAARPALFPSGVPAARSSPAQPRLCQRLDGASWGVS
# Description: Activity at human beta-3 adrenergic receptor expressed in CHO cells by stimulation of cAMP production
# [4] = biological target: T1, Beta-2 adrenergic receptor (Homo sapiens, UniProt P07550)
# T1 sequence (P07550 whole entry): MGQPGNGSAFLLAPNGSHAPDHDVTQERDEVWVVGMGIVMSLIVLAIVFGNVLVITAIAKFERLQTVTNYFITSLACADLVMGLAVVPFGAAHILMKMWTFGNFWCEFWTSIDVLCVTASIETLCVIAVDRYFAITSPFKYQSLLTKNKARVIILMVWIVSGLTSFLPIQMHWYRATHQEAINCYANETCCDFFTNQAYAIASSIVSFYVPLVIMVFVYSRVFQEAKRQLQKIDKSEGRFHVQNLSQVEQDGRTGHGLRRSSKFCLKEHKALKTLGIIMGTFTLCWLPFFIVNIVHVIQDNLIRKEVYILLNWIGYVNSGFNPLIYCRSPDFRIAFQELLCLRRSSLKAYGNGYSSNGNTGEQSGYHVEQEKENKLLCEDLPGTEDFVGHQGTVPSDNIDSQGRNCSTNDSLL
# Description: Activity at human beta-2 adrenergic receptor expressed in CHO cells by stimulation of cAMP production
# [5] = biological target: T2, Beta-1 adrenergic receptor (Homo sapiens, UniProt P08588)
# T2 sequence (P08588 whole entry): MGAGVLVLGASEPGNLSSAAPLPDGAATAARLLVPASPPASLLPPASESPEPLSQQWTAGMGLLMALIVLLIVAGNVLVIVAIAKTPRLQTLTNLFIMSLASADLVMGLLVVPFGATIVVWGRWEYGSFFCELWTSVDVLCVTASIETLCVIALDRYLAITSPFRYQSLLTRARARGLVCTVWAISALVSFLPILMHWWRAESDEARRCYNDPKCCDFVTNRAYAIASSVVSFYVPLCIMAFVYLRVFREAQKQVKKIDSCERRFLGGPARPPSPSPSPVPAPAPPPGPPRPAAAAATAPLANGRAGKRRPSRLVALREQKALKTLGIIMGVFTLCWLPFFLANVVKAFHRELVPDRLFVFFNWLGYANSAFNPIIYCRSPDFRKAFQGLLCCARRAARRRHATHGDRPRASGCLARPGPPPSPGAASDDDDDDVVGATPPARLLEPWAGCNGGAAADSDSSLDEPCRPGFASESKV
# Description: Activity at human beta-1 adrenergic receptor expressed in CHO cells by stimulation of cAMP production
# [6] = Half life in po dosed Beagle dog; type: ADME, organism-based, Canis lupus familiaris; settings: in vivo
# [7] = Bioavailability in Beagle dog; type: ADME, organism-based, Canis lupus familiaris; settings: in vivo
# Mus musculus [8] = experiment: Decrease in plasma glucose level in db/db mouse at 0.03 mg/kg, po after 14 days; type: functional
# Mus musculus [9] = experiment: Decrease in plasma glucose level in db/db mouse at 0.3 mg/kg, po after 14 days; type: functional
# Mus musculus [10] = experiment: Decrease in plasma glucose level in db/db mouse at 3 mg/kg, po after 14 days; type: functional
# Mus musculus [11] = experiment: Decrease in glycosylated hemoglobin in db/db mouse at 0.03 mg/kg, po after 14 days; type: functional; set-up: scale not given: the % may be the effect or the level left
# Mus musculus [12] = experiment: Decrease in glycosylated hemoglobin in db/db mouse at 3 mg/kg, po after 14 days; type: functional; set-up: scale not given: the % may be the effect or the level left
# Mus musculus [13] = experiment: Decrease in plasma insulin level in db/db mouse at 0.03 mg/kg, po after 14 days; type: functional
# Mus musculus [14] = experiment: Decrease in plasma insulin level in db/db mouse at 0.3 mg/kg, po after 14 days; type: functional
# Mus musculus [15] = experiment: Decrease in plasma insulin level in db/db mouse at 3 mg/kg, po after 14 days; type: functional
# Mus musculus [16] = experiment: Decrease in glycosylated hemoglobin in db/db mouse at 0.3 mg/kg, po after 14 days; type: functional; set-up: scale not given: the % may be the effect or the level left
# [17] = AUC(0-infinity) in po dosed Beagle dog; type: ADME, organism-based, Canis lupus familiaris; set-up: time infinity, route oral; settings: plasma
# Mus musculus [18] = experiment: Decrease in plasma glucose level in db/db mouse at 0.01 mg/kg, po after 14 days; type: functional
# Mus musculus [19] = experiment: Decrease in plasma glucose level in db/db mouse at 0.1 mg/kg, po after 14 days; type: functional
# Mus musculus [20] = experiment: Decrease in plasma glucose level in db/db mouse at 1 mg/kg, po after 14 days; type: functional
# Mus musculus [21] = experiment: Decrease in glycosylated hemoglobin in db/db mouse at 0.01 mg/kg, po after 14 days; type: functional; set-up: scale not given: the % may be the effect or the level left
# Mus musculus [22] = experiment: Decrease in glycosylated hemoglobin in db/db mouse at 0.1 mg/kg, po after 14 days; type: functional; set-up: scale not given: the % may be the effect or the level left
# Mus musculus [23] = experiment: Decrease in glycosylated hemoglobin in db/db mouse at 1 mg/kg, po after 14 days; type: functional; set-up: scale not given: the % may be the effect or the level left
# Mus musculus [24] = experiment: Decrease in plasma insulin level in db/db mouse at 0.01 mg/kg, po after 14 days; type: functional
# Mus musculus [25] = experiment: Decrease in plasma insulin level in db/db mouse at 0.1 mg/kg, po after 14 days; type: functional
# Mus musculus [26] = experiment: Decrease in plasma insulin level in db/db mouse at 1 mg/kg, po after 14 days; type: functional
# Mus musculus [27] = experiment: Increase of thermogenic activity in CD1 mouse at 3 mg/kg; type: functional, organism-based; set-up: dose 3 mg/kg
# Mus musculus [28] = experiment: Increase of thermogenic activity in CD1 mouse at 10 mg/kg; type: functional, organism-based; set-up: dose 10 mg/kg
# Mus musculus [29] = experiment: Decrease in plasma glucose level in db/db mouse at 10 mg/kg, po after 14 days; type: functional
# Mus musculus [30] = experiment: Decrease in plasma glucose level in db/db mouse at 30 mg/kg, po after 14 days; type: functional
# Mus musculus [31] = experiment: Decrease in plasma glucose level in db/db mouse at 100 mg/kg, po after 14 days; type: functional
# Mus musculus [32] = experiment: Decrease in glycosylated hemoglobin in db/db mouse at 10 mg/kg, po after 14 days; type: functional; set-up: scale not given: the % may be the effect or the level left
# Mus musculus [33] = experiment: Decrease in glycosylated hemoglobin in db/db mouse at 30 mg/kg, po after 14 days; type: functional; set-up: scale not given: the % may be the effect or the level left
# Mus musculus [34] = experiment: Decrease in glycosylated hemoglobin in db/db mouse at 100 mg/kg, po after 14 days; type: functional; set-up: scale not given: the % may be the effect or the level left
# Mus musculus [35] = experiment: Decrease in plasma insulin level in db/db mouse at 10 mg/kg, po after 14 days; type: functional
# Mus musculus [36] = experiment: Decrease in plasma insulin level in db/db mouse at 30 mg/kg, po after 14 days; type: functional
# Mus musculus [37] = experiment: Decrease in plasma insulin level in db/db mouse at 100 mg/kg, po after 14 days; type: functional
# Mus musculus [38] = experiment: Increase of thermogenic activity in CD1 mouse at 30 mg/kg; type: functional, organism-based; set-up: dose 30 mg/kg
# [39] = Clearance in Wistar Han rat at 1 mg/kg, iv or 1 mg/kg, po; type: ADME, organism-based; settings: in vivo
# [40] = Renal clearance in Wistar Han rat at 1 mg/kg, iv or 1 mg/kg, po; type: ADME, organism-based, Kidney; settings: in vivo, read-out: CL_renal
# [41] = Volume of distribution in Wistar Han rat at 1 mg/kg, iv or 1 mg/kg, po; type: ADME, organism-based; settings: in vivo, read-out: Vss
# [42] = Half life in Wistar Han rat at 1 mg/kg, iv; type: ADME, organism-based; set-up: dose 1 mg/kg, route intravenous; settings: in vivo
# [43] = Half life in Wistar Han rat at 1 mg/kg, po; type: ADME, organism-based; set-up: dose 1 mg/kg, route oral; settings: in vivo
# [44] = Bioavailability in Wistar Han rat at 1 mg/kg, po and 1 mg/kg, iv; type: ADME, organism-based; settings: in vivo
# [45] = Renal clearance in Beagle dog; type: ADME, organism-based, Canis lupus familiaris, Kidney; settings: in vivo, read-out: CL_renal
# [46] = Half life in Beagle dog at 0.2 mg/kg, iv; type: ADME, organism-based, Canis lupus familiaris; set-up: dose 0.2 mg/kg, route intravenous; settings: in vivo
# [47] = Clearance in cynomolgus monkey; type: ADME, organism-based, Macaca fascicularis; settings: in vivo
# [48] = Volume of distribution in cynomolgus monkey; type: ADME, organism-based, Macaca fascicularis; settings: in vivo, read-out: Vss
# [49] = Half life in iv dosed cynomolgus monkey; type: ADME, organism-based, Macaca fascicularis; settings: in vivo
# [50] = Half life in po dosed cynomolgus monkey; type: ADME, organism-based, Macaca fascicularis; settings: in vivo
# [51] = biological target: T1, Beta-2 adrenergic receptor; experiment: Displacement of [125I]cyanopindolol from human cloned beta-2 adrenergic receptor expressed in Sf9 cells
# [52] = biological target: Beta-2 adrenergic receptor and beta-3 adrenergic receptor (Homo sapiens, UniProt P07550+P13945); experiment: Ratio of pEC50 for human beta-3 adrenergic receptor to pKi for human beta2 adrenergic receptor; type: functional
# [53] = biological target: T2, Beta-1 adrenergic receptor; experiment: Displacement of [125I]cyanopindolol from human cloned beta-1 adrenergic receptor expressed in Sf9 cells
smiles,measurement,setting,value
C[C@H](CNc1cccc(-c2ccc(C(=O)O)cc2C(=O)O)c1)NC[C@H](O)c1cccc(Cl)c1,Vd,[1],0.99 L/kg
same,clearance,[2],9.3 mL/min/kg
same,EC50,[3],0.2 nM
same,EC50,[4],> 10000 nM
same,EC50,[5],2510 nM
O=C(O)c1cncc(-c2cccc(NCCNC[C@H](O)c3cccc(Cl)c3)c2)c1,EC50,[3],63.1 nM
same,EC50,[4],3980 nM
same,EC50,[5],3160 nM
C[C@H](CNc1cccc(-c2ccccc2C(=O)O)c1)NC[C@H](O)c1cccc(Cl)c1,Vd,[1],0.37 L/kg
same,half-life,[6],2.4 h
same,bioavailability,[7],40%
same,plasma glucose,Mus musculus [8],417 mg/dL
same,plasma glucose,Mus musculus [9],238 mg/dL
same,plasma glucose,Mus musculus [10],222 mg/dL
same,Activity,Mus musculus [11],7.2%
same,Activity,Mus musculus [12],5.4%
same,Activity,Mus musculus [13],13.7 ng/mL
same,Activity,Mus musculus [14],6.7 ng/mL
same,Activity,Mus musculus [15],3 ng/mL
same,Activity,Mus musculus [16],5.7%
same,AUC(0-inf),[17],310 ng·h/mL
same,clearance,[2],11.3 mL/min/kg
same,EC50,[3],0.251 nM
same,EC50,[4],1000 nM
same,EC50,[5],631 nM
C[C@H](CNc1cccc(-c2cccc(C(=O)O)c2)c1)NC[C@H](O)c1cccc(Cl)c1,Vd,[1],0.45 L/kg
same,half-life,[6],2.5 h
same,bioavailability,[7],28%
same,AUC(0-inf),[17],135 ng·h/mL
same,clearance,[2],7.3 mL/min/kg
same,EC50,[3],0.1 nM
same,EC50,[4],50.1 nM
same,EC50,[5],6.31 nM
Cc1ccc(C(=O)O)cc1-c1cccc(NCCNC[C@H](O)c2cccc(Cl)c2)c1,Vd,[1],1.37 L/kg
same,half-life,[6],2.4 h
same,bioavailability,[7],37%
same,AUC(0-inf),[17],173 ng·h/mL
same,clearance,[2],7.1 mL/min/kg
same,EC50,[3],1.58 nM
same,EC50,[4],631 nM
same,EC50,[5],794 nM
C[C@H](CNc1cccc(-c2ncccc2C(=O)O)c1)NC[C@H](O)c1cccc(Cl)c1,EC50,[3],31.6 nM
same,EC50,[4],1580 nM
same,EC50,[5],794 nM
C[C@H](CNc1cccc(-c2ccc(C(=O)O)cc2)c1)NC[C@H](O)c1cccc(Cl)c1,EC50,[3],31.6 nM
same,EC50,[4],1580 nM
same,EC50,[5],794 nM
COC(=O)c1cccc(-c2cccc(NCCNC[C@H](O)c3cccc(Cl)c3)c2)c1,EC50,[3],158 nM
same,EC50,[4],501 nM
same,EC50,[5],1260 nM
O=C(O)c1cccc(-c2cccc(NCCNC[C@H](O)c3cccc(Cl)c3)c2)n1,EC50,[3],39.8 nM
same,EC50,[4],10000 nM
same,EC50,[5],5010 nM
O=C(O)c1ccncc1-c1cccc(NCCNC[C@H](O)c2cccc(Cl)c2)c1,Vd,[1],0.33 L/kg
same,half-life,[6],1.7 h
same,bioavailability,[7],27%
same,plasma glucose,Mus musculus [18],351 mg/dL
same,plasma glucose,Mus musculus [19],181 mg/dL
same,plasma glucose,Mus musculus [20],180 mg/dL
same,Activity,Mus musculus [21],5.6%
same,Activity,Mus musculus [22],5%
same,Activity,Mus musculus [23],4.8%
same,Activity,Mus musculus [24],11.4 ng/mL
same,Activity,Mus musculus [25],2.8 ng/mL
same,Activity,Mus musculus [26],1.4 ng/mL
same,AUC(0-inf),[17],161 ng·h/mL
same,clearance,[2],5.64 mL/min/kg
same,EC50,[3],0.1 nM
same,EC50,[4],> 10000 nM
same,EC50,[5],10000 nM
O=C(O)c1cccc(-c2cccc(NCCNC[C@H](O)c3cccc(Cl)c3)c2)c1 [SOLABEGRON],Activity,Mus musculus [27],Dose-dependent effect
same,Activity,Mus musculus [28],Dose-dependent effect
same,Vd,[1],0.34 L/kg
same,half-life,[6],5 h
same,bioavailability,[7],43%
same,plasma glucose,Mus musculus [29],384 mg/dL
same,plasma glucose,Mus musculus [30],207 mg/dL
same,plasma glucose,Mus musculus [31],185 mg/dL
same,Activity,Mus musculus [32],7.3%
same,Activity,Mus musculus [33],7.6%
same,Activity,Mus musculus [34],7.06%
same,Activity,Mus musculus [35],6.3 ng/mL
same,Activity,Mus musculus [36],4.4 ng/mL
same,Activity,Mus musculus [37],0.9 ng/mL
same,Activity,Mus musculus [38],Dose-dependent effect
same,AUC(0-inf),[17],595 ng·h/mL
same,clearance,[2],2.4 mL/min/kg
same,clearance,[39],18.1 mL/min/kg
same,CL renal,[40],0.16 mL/min/kg
same,Vd,[41],1.3 L/kg
same,half-life,[42],2.1 h
same,half-life,[43],3 h
same,bioavailability,[44],30%
same,CL renal,[45],0.014 mL/min/kg
same,half-life,[46],3.3 h
same,clearance,[47],5.5 mL/min/kg
same,Vd,[48],0.556 L/kg
same,half-life,[49],4.5 h
same,half-life,[50],5.2 h
same,Ki,[51],1580 nM
same,Ratio,[52],398
same,Ki,[53],398 nM
same,EC50,[3],3.98 nM
same,EC50,[4],1260 nM
same,EC50,[5],3980 nM
